Assay results as given in patent US20100104550A1 (priority 2006, published 2010).

Columns and labels:
bovine BiP = bovine BiP (Bos taurus, UniProt Q0VCX2); format: biochemical
CHOP = format: cell-based, murine
GRP78/BiP = GRP78/BiP (Homo sapiens, UniProt P11021); format: cell-based
BiP = format: cell-based, African green monkey

Chain of GRP78/BiP (P11021 19-654): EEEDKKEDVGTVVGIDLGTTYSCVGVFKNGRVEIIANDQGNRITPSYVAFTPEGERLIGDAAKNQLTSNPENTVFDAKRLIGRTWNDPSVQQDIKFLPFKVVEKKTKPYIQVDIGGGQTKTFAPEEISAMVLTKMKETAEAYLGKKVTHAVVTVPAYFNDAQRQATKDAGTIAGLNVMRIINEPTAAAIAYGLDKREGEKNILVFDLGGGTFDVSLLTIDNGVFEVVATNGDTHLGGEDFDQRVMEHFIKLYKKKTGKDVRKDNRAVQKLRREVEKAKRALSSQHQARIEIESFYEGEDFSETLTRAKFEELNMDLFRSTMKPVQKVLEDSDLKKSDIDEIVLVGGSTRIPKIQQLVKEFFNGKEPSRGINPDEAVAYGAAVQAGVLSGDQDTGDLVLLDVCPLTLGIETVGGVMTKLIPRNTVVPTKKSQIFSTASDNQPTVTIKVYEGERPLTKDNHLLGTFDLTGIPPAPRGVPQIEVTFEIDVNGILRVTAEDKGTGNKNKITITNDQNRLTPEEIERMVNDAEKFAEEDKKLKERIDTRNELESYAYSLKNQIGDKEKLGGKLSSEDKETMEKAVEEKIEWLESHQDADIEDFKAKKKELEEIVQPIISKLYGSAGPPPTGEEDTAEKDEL

SubB: B subunit of subtilase cytotoxin, 13 kDa, binds target cells and transports SubA intracellularly
cleavage of purified bovine BiP (bovine BiP): not cleaved

C/C=C(/C)C(=O)O[C@H]1C(C)=C2[C@H]([C@@H]1OC(=O)CCCCCCC)[C@@](C)(OC(C)=O)C[C@H](OC(=O)CCC)[C@@]1(O)[C@H]2OC(=O)[C@@]1(C)O [thapsigargin, reference compound]
CHOP induction in N2A cells (CHOP): evident
expression of BiP (GRP78/BiP): enhanced expression of BiP

C[C@H]1CCC/C=C/[C@@H]2C[C@H](O)C[C@H]2[C@H](O)/C=C/C(=O)O1 [brefeldin A]
effect on SubAB cleavage of 72-kDa BiP (BiP): completely blocked

tunicamycin
CHOP induction in N2A cells (CHOP): evident
